Read-outs that look alike come from different tables or passages of the source. Ends that are not written are not given here.
What was measured:
[1] = Aggregation assay (light scattering); assay type: physicochemical; conditions: 10 mM sodium phosphate buffer; for Self-aggregation: light scattering ex 400 nm / em 400 nm, 12 h, 37° C, mean of three experiments
Protocol: Light scattering assays were performed with clavaspirin and its analogue peptides using a Perkin-Elmer LS55 fluorometer. Peptides were dissolved in 10 mM sodium phosphate buffer (pH 5.5 or pH 7.4) and incubated for 12 h at 37° C. Light scattering was excited at 400 nm and the emission was scanned at 400 nm.

[2] = tested on: E. coli ATCC 25922; assay type: cell-based, Escherichia coli
From the text: (§1) The method for peptide synthesis has been described in detail previously. E. coli ATCC 25922 (LB media), P. aeruginosa ATCC 15692 (NB+0.5% NaCl media), Listeria monocytogenes ATCC 3710 (LB media), Staphylococcus epidermidis ATCC 12228 (LB media), and S. aureus ATCC 29213 (TSB media) were obtained from the American Type Culture Collection (Manassas, VA, USA). Bacillus subtilis KCTC 1998 (LB media), Salmonella typhimurium KCTC 1926 (NB media), and Proteus vulgaris KCTC 2433 (NB media) were obtained from the Korean Collection for Type Cultures (Jeollabuk-do, Korea). E. coli CCARM 1238 was received from the Culture Collection of Antibiotic Resistant Microbes at Seoul Women’s University, Korea. Drug-resistant P. aeruginosa 3543, 3904, 3547, and 4007 and S. aureus 3126, 0027, 5157, 1635, 4761, 5159, 3359, 2122, 1630, 1870, 3511, 5156, and 3518 were resistant strains isolated from patients with otitis media in a Chonnam National University’s hospital.
(§2) The antibacterial activities of AMPs (melittin, clavaspirin, and its analogs) and conventional antibiotic drugs (erythromycin, gentamicin, ampicillin, and piperacidin) were determined using microdilution assays. Bacterial cells were cultured at 37° C in appropriate culture media at pH 5.5 or pH 7.4 until collection during the mid-log phase and suspended in 10 mM sodium phosphate buffer (pH 5.5 or pH 7.4) supplemented with 10% culture medium. Thereafter, 2× serial dilutions of each peptide (0.25–128 μM) or antibiotic (0.25–256 μM) were added to sterile 96-well plates, and aliquots of cell suspension (5 × 10^5 colony forming units (cfu)/mL) were seeded into each well. The samples were then incubated at 37° C for 24 h. At the end of the incubation, the minimum inhibitory concentrations (MICs) of the peptides were determined using a VERSA Max microplate reader (Molecular Devices Co., Sunnyvale, CA, USA) at a wavelength of 600 nm. […] MIC values were calculated as the mean of 3 independent experiments conducted in triplicate.

[3] = tested on: P. aeruginosa ATCC 15692; assay type: cell-based, Pseudomonas aeruginosa
From the text: as §1, with “E. coli ATCC 25922 (LB media), P. aeruginosa ATCC 15692 (NB+0.5% NaCl media), Listeria monocytogenes ATCC 3710 (LB media), Staphylococcus epidermidis ATCC 12228 (LB media), and S. aureus ATCC 29213 (TSB media) were obtained from the American Type Culture Collection (Manassas, VA, USA).” left out
as §2, with “Bacterial cells were cultured at 37° C in appropriate culture media at pH 5.5 or pH 7.4 until collection during the mid-log phase and suspended in 10 mM sodium phosphate buffer (pH 5.5 or pH 7.4) supplemented with 10% culture medium.” left out

[4] = tested on: human red blood cells (hRBCs); assay: Hemolysis; assay type: cell-based; conditions: PBS buffer containing 8% hRBCs, 1 h, 37° C, absorbance 414 nm, triplicate
Protocol: Fresh human red blood cells (hRBCs) from healthy donors were centrifuged at 800 × g and washed with phosphate-buffered saline (PBS) until the supernatant was clear. Twofold serial dilutions of the peptides in PBS were added to a 96-well plate, after which the hRBCs were added to obtain a final concentration of 8% (vol/vol). The samples were then incubated with mild agitation for 1 h at 37° C. The samples were then centrifuged at 800 × g for 10 min, and the absorbance of the supernatant was measured at 414 nm. All the measurements were performed in triplicate, and the percentages of hemolysis were calculated using equation 1: % hemolysis=[(A414 in peptide solution−A414 in PBS)/(A414 in […]−A414 in PBS)]×100 (1)
Where 100% hemolysis was defined as the absorbance measured from hRBCs exposed to 1% Triton X-100 and zero hemolysis was characterized using hRBCs alone in PBS [40].

[5] = tested on: hRBCs; assay type: cell-based, human; conditions: 400 μM peptide, PBS buffer containing 8% hRBCs, 1 h, 37° C, microscope
Protocol: (§3) www.oncotarget.com Oncotarget, Supplementary Materials
(§4) New antimicrobial peptide kills drug-resistant pathogens without […]
(§5) Supplementary Figure 1: The hemolytic activities of peptides were tested using hRBCs, and cytotoxicity was tested using a human keratinocyte line (HaCaT cells). The cells were treated with 400 μM peptide in PBS buffer containing 8% hRBCs (v/v). The samples were then incubated with mild agitation for 1 h at 37° C, and then spun down at 800 × g for 10 min. Changes in hRBC morphology were examined under a microscope. Cells were treated with 400 μM rhodamine-labeled peptides. HaCaT cells were seeded at 4 × 10^3 cells/well and then incubated for 24 h, treated with rhodamine-labeled peptide and incubated for an additional 24 h at 37° C in a humidified chamber under an atmosphere containing 5% CO2. The cells were examined under an inverted fluorescence phase contrast microscope. Scale bar, 100 μm.
(§6) (1 picture or pasted object on this page, not shown here)

[6] = tested on: HaCaT cells; assay type: cell-based, human; conditions: 400 μM rhodamine-labeled peptide, 24 h, 37° C, fluorescence microscope
Protocol: as §3, §4, §5, §6

[7] = pH 5.5 (I), 10 mM sodium phosphate buffer, 10% LB, 37° C, 24 h, mean of 3 experiments
[8] = pH 7.4 (II), 10 mM sodium phosphate buffer, 10% LB, 37° C, 24 h, mean of 3 experiments

Substance | Self-aggregation ([1]; pH 7.4) | MIC, E. coli ([2]; ATCC 25922, 24 h, pH 5.5) [µM] | MIC, E. coli ([2]; ATCC 25922, 24 h, pH 7.4) [µM] | MIC, P. aeruginosa ([3]; ATCC 15692, 24 h, pH 5.5) [µM] | MIC, P. aeruginosa ([3]; ATCC 15692, 24 h, pH 7.4) [µM] | HC10 (hemolytic activity) [4] | HC50 (hemolytic activity) [4] | Membrane damage of hRBCs [5] | Binding to the cell membrane of HaCaT cells [6] | Self-aggregation ([1]; pH 5.5) | Effect of varying the pH on aggregation ([1]; pH 5.5 vs pH 7.4, light scattering) | MIC, E. coli [2, 7] [µM] | MIC, E. coli [2, 8] [µM] | MIC, P. aeruginosa [3, 7] [µM] | MIC, P. aeruginosa [3, 8] [µM]
FKRFIGSVKHGIGHLVHHIGVAL-NH2 [CSP-3] | aggregation increased | 2 | 4 | 32 | 32 | > 400 | > 400 | – | – | – | – | – | – | – | –
FLRFIGSVKHGKGHLVHHIGVAL-NH2 [CSP-4] | very little self-aggregation | – | – | – | – | > 400 | > 400 | no detectable hemolytic or membrane-binding activity | no detectable hemolytic or membrane-binding activity | very little self-aggregation | not affected | 2 | 4 | 32 | 32

From paper PMC5884652, “New antimicrobial peptide kills drug-resistant pathogens without detectable resistance” (Oncotarget, 2018)
